PubChem BioAssay (NCI)
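The compound was tested at five concentrations on cells cultured in 96-well plates, with a 48-hour exposure period. Here, GI50 denotes the concentration required for 50% inhibition of growth. TGI: concentration producing complete growth inhibition.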

Assays:
Experiment in all cases: inhibition of tumour cell growth, NCI panel, 48 h
SN12C renal = system: SN12C renal
NCI-H23 lung = system: NCI-H23 lung
SNB-19 CNS = system: SNB-19 CNS
COLO 205 colon = system: COLO 205 colon
U251 CNS = system: U251 CNS
CCRF-CEM leukemia = system: CCRF-CEM leukemia
NCI-H460 lung = system: NCI-H460 lung
SNB-75 CNS = system: SNB-75 CNS
UO-31 renal = system: UO-31 renal
SK-MEL-2 melanoma = system: SK-MEL-2 melanoma

SMILES | TGI (SN12C renal) | TGI (NCI-H23 lung) | TGI (SNB-19 CNS) | TGI (COLO 205 colon) | TGI (U251 CNS) | TGI (CCRF-CEM leukemia) | TGI (NCI-H460 lung) | TGI (SNB-75 CNS) | TGI (UO-31 renal) | TGI (SK-MEL-2 melanoma) | GI50 (SK-MEL-2 melanoma) | GI50 (SN12C renal) | GI50 (NCI-H23 lung) | GI50 (SNB-19 CNS) | GI50 (COLO 205 colon) | GI50 (U251 CNS) | GI50 (CCRF-CEM leukemia) | GI50 (NCI-H460 lung) | GI50 (SNB-75 CNS) | GI50 (UO-31 renal)
CC1(C)CCCC2(C)[C@@H]1CC[C@]13C[C@](C)(CC[C@@H]21)[C@@H]3CO (stereo partly drawn) | > 100 µM | > 100 µM | > 100 µM | > 100 µM | > 100 µM | > 100 µM | > 100 µM | > 100 µM | > 100 µM |  |  |  |  |  |  |  |  |  |  | 
CCOC(=O)c1csc(NC(=O)CCN2CCOCC2)n1 |  | > 100 µM | > 100 µM | > 100 µM | > 100 µM | > 100 µM | > 100 µM |  | > 100 µM | > 100 µM |  |  |  |  |  |  |  |  |  | 
COc1ccc2c(c1)C(=O)/C(=C/c1ccccc1)C2 | > 100 µM | > 100 µM | > 100 µM |  | > 100 µM | > 100 µM | > 100 µM | > 100 µM | > 100 µM | > 100 µM |  |  |  |  |  |  |  |  |  | 
CCNc1nc2c(=O)n(C)c(=O)n(C)c2s1 | > 100 µM | > 100 µM | > 100 µM | > 100 µM | > 100 µM | > 100 µM | > 100 µM | > 100 µM | > 100 µM | > 100 µM |  |  |  |  |  |  |  |  |  | 
C=C1CC2(C)CCC(OC(=O)C3(C)OC3C)C(C)(OC(C)=O)C2CC1=C(C)C (stereo not drawn) | > 100 µM | > 100 µM | > 100 µM | > 100 µM | > 100 µM | > 100 µM | > 100 µM | > 100 µM | > 100 µM | > 100 µM |  |  |  |  |  |  |  |  |  | 
CC12CCC3C(CCC4(O)C=CCCC34C=O)C1(O)CC(O)C2c1ccc(=O)oc1 (stereo not drawn) | 0.199 µM | 0.12 µM | 0.527 µM | 0.381 µM | 0.197 µM | 10.1 µM | 0.0716 µM | 0.246 µM | 0.141 µM | 0.295 µM |  |  |  |  |  |  |  |  |  | 
O=c1n(Cc2ccccc2)c2ccccc2n1CC1CS1 (stereo not drawn) | > 100 µM |  | > 100 µM | > 100 µM |  | > 100 µM |  | > 100 µM | > 100 µM | > 100 µM |  |  |  |  |  |  |  |  |  | 
COc1cc(CN(C)N2C(=O)c3cccc4cc([N+](=O)[O-])cc(c34)C2=O)cc(OC)c1OC | > 100 µM | > 100 µM | > 100 µM | > 100 µM | > 100 µM | > 100 µM | > 100 µM | 60.1 µM | > 100 µM | > 100 µM |  |  |  |  |  |  |  |  |  | 
O=C1CNC(=O)N1 | > 1120 µM | > 1120 µM | > 1120 µM | > 1120 µM | > 1120 µM | > 954 µM | > 1120 µM | > 1120 µM | > 1120 µM | > 1120 µM |  |  |  |  |  |  |  |  |  | 
O=C(NC/C=C/CO)c1ccccc1 | > 100 µM | > 100 µM | > 100 µM | > 100 µM | > 100 µM | > 100 µM | > 100 µM | > 100 µM | > 100 µM | > 100 µM |  |  |  |  |  |  |  |  |  | 
Cc1cc(C)c(S(=O)(=O)N(CCCCCCN)OCCCON(CCCCCCN)S(=O)(=O)c2c(C)cc(C)cc2C)c(C)c1 | 3.89 µM | 3.11 µM | 3.01 µM | 3.76 µM | 3.15 µM | > 100 µM | 3.07 µM | 3.17 µM | 4.04 µM | 3.48 µM |  |  |  |  |  |  |  |  |  | 
ClCc1nnc2n1-c1ccc(Cl)cc1SC2 | 29.6 µM | 8.2 µM | 25.7 µM | 13 µM | 19.8 µM | 8.42 µM | 14 µM | 10.3 µM | 30.3 µM | 9.22 µM |  |  |  |  |  |  |  |  |  | 
Fc1cc(C2=Nn3c(nnc3-c3cc(F)c(Cl)cc3Cl)SC2)c(Cl)cc1Cl | 55.7 µM | > 100 µM | 93.4 µM | 43.1 µM | 64 µM | > 100 µM | > 100 µM | > 100 µM | > 100 µM | > 100 µM | 65.3 µM | 18.4 µM | 21.8 µM | 22.7 µM | 19 µM | 20.4 µM | 22 µM | 17.6 µM | 26.2 µM | 31.3 µM
